From patent publication US11596642B2, “Therapeutic treatment of breast cancer based on c-MAF status” (INBIOMOTION S.L., priority 2016, dated 2023)

Tests used:
Assay type in all cases: in vivo, human
breast cancer [1] = experiment: AZURE trial, retrospective MAF FISH stratification: time to bone metastasis (zoledronic acid arm vs control arm)
Source text: (§1) The MAF FISH assay was produced by Kreatech for Inbiomotion based on KREATECH proprietary FISH technology. The probe set contains two probes: a MAF 16q23 probe plus a D16Z3 probe as control of chromosome 16 centromeric region. The assay was validated using a 16q23/D16Z3 probe (Inbiomotion) and Poseidon Tissue Digestion Kit from Kreatech. The scoring criteria were defined in a fact sheet and as follows: two FISH evaluable results per patient, and the highest value was selected. The scoring algorithm was as follows: 20 cells counted for target and centromere amplification, if the gene count is >2 and ≤3, then 50 cells were counted.
An overview of the AZURE clinical trial (Coleman et al N Eng J Med 2011; 365: 1396-1405 and AZURE Current Controlled Trials number, ISRCTN79831382 and ClinicalTrials.gov identifier NCT00072020) study design, whose patients were used to validate MAF, is provided in FIG. 2. MAF was validated in a retrospective analysis of the AZURE trial using patient tumor sample prospectively collected under regulatory compliant conditions. Out of the 3360 patients recruited, 1,769 donated tumor tissue (52.4%). There were 13 TMAs (tissue micro array) (150 patient samples each) (1,769 patients). There were 4 replicas of each TMA using different tissue cores (6,326 (4×patient)). One TMA had only 1 replica and two TMAs had three replicas. Based on the H&E analysis (hematoxilyin and eosin) (FIG. 3) (6,326): 3978 cores were evaluable (63%) and 2348 were nonevaluable.
For the FISH assay, there were 2,067 FISH evaluable cores (56%). […] 567 patients were nonevaluable by FISH in any of the 4 replicas (32%).
numerical and categorical (+/− cut-off>=2.5) variable; % of nucleic MAF amplified (MAF CN>2):numberical+categorical (cut-off TBD). For the IHC analysis: IHC H-Score: numerical+categorical (cut-off=200), IHC OD: numerical+categorical (cut-off tBD). The following clinical variables were analyzed: disease-free survival (DFS), invasive disease-free survival (IDFS), overall survival (OS), first recurrence in bone, bone recurrence at any time, time to first DFS event in bone, time to first DFS event not in bone, response to zoledronic acid treatment.
In analyzing the MAF FISH prognostic value, the patients from the control and treatment arms were pooled for the initial analysis. Optimized cut-offs for each variable to be analyzed were used when indicated. Death as a competing event was used in time to bone metastasis, anytime. The following clinical variables were analyzed: time to bone metastasis (anytime), time to bone metastasis (as first event), IDFS (including ipsilateral invasive breast tumor recurrence, regional invasive breast cancer recurrence, metastatic disease-breast cancer, death attributable to any cause, including breast cancer, contralateral invasive breast cancer, second primary non-breast invasive cancer), and overall survival.
The control and zoledronic acid treatment arms from the AZURE study described in Example 1 were evaluated to determine the effect of zoledronic acid treatment on MAF-stratified patients.

breast cancer [2] = experiment: AZURE trial, MAF FISH stratification: invasive disease free survival (IDFS) / time to recurrence; conditions: MAF positive patients (>=2.2) in the zoledronic acid treatment arm; p<0.001, multivariate analysis
Source text: as §1, with “counted. […]” for “counted.”
(§2) numerical and categorical (+/− cut-off>=2.5) variable; % of nucleic MAF amplified (MAF CN>2):numberical+categorical (cut-off TBD). […] The following clinical variables were analyzed: disease-free survival (DFS), invasive disease-free survival (IDFS), overall survival (OS), first recurrence in bone, bone recurrence at any time, time to first DFS event in bone, time to first DFS event not in bone, response to zoledronic acid treatment.
(§3) In analyzing the MAF FISH prognostic value, the patients from the control and treatment arms were pooled for the initial analysis. Optimized cut-offs for each variable to be analyzed were used when indicated. […]

breast cancer [3] = experiment: AZURE trial, MAF FISH stratification: disease free survival (DFS); conditions: MAF negative post menopausal patients; zoledronic acid treatment; 95% CI 0.33-0.95
Source text: as §1, with “counted. […]” for “counted.”
as §2, §3

breast cancer [4] = experiment: AZURE trial, MAF FISH stratification: overall survival (OS); conditions: MAF negative post menopausal patients; zoledronic acid treatment; 95% CI 0.31-1.01
Source text: as §1, with “counted. […]” for “counted.”
as §2, §3

O=P(O)(O)C(O)(Cn1ccnc1)P(=O)(O)O [zoledronic acid]
Hazard ratio (HR), risk of bone metastasis at any time (breast cancer [1]; MAF FISH not positive patients, pre-specified cut off 2.5, zoledronic acid treatment vs control, death as competing event, p=0.03): 0.65 | Hazard ratio (HR), time to a bone metastatic event (anytime) (breast cancer [1]; MAF non-positive non-post-menopausal patients, cut off 2.5, p=0.08): 0.66 | Hazard ratio (HR), time to a bone metastatic event (anytime) (breast cancer [1]; MAF non-positive postmenopausal patients, cut off 2.5, limited number of events): 0.63 | Hazard ratio (HR), time to a bone metastatic event (anytime) (breast cancer [1]; MAF positive non-post-menopausal patients, cut off 2.5, p=0.045): 2.44 | Hazard ratio (HR), risk of bone metastasis at any time (breast cancer [1]; MAF positive patients, cut off 2.5, zoledronic acid treatment vs control, non-significant, p=0.22): 1.54 | Hazard ratio (HR), time to a bone metastatic event (anytime) (breast cancer [1]; MAF positive postmenopausal patients (>2.5), treatment outcome, p=0.26, limited number of events): 0.46 | Hazard ratio (HR), risk of bone metastasis at any time (breast cancer [1]; zoledronic acid arm, MAF FISH not positive (<2.3) compared to MAF FISH positive patients, p=0.01): 0.52 | Hazard ratio (HR), time to recurrence (invasive disease) (breast cancer [2]): 0.52 | Hazard ratio (HR), DFS outcome (breast cancer [3]): 0.56 | Hazard ratio (HR), overall survival outcome (breast cancer [4]): 0.56
